Marks after values point to notes of the source that are not given here.
Key:
[1] = system: Human hair (Alkinco 6633); assay: HP-DSC keratin melting point of permanent-waved hair after 1% aqueous active substance, Alkinco 6633; conditions: for Keratin melting point for Alkinco 6633: permanent-waved hair, treated 10 mins. with 1% aqueous solution of active substance, rinsed, dried
Source text: (§1) HP-DSC (High-Pressure Differential Scanning Calorimetry)
Thermoanalytical investigations are particularly suitable for characterizing two-phase systems to which human hair fibers as fibrous keratins with their crystalline α-helix component and amorphous matrix component also belong. On the one hand, glass transitions and aging behavior of the amorphous matrix can be investigated, on the other hand the melting behavior of the crystalline helical phase provides important information. Thermoanalytical studies were described for the first time in 1899. The first differential thermoanalyses (DTA) of protein fibers were carried out towards the end of the fifties (F. Schwenker, J. H. Dusenbury, Text. Res. J. […], 30, pages 800 et seq; W. D. Felix, M. A. McDowall, H. Eyring, ibid. (1963), 33, pages 465 et seq). In the following years, various thermoanalytical measuring techniques, such as DTA, HP-DTA (high-pressure DTA) and DSC (differential scanning calorimetry) were applied to keratin fibers, for example to investigate the phenomenon of supercontraction, α-β-phase transitions of the helices or denaturing processes. Recently, the method of IIP-DSC was used to study keratin fibers, more particularly at the Deutsches Wollforschungsinstitut (German Wool Research Institute) in Aachen (F. J. Wortmann, H. Deutz, J. Appl. Polym. Sci. 1993, 48, pp. 137 et seq.). IIP-DSC rules out the problems associated with pyrolytic effects which occur in conventional DSC and the problems with data acquisition and interpretation by which DTA is attended. DSC measurements are carried out on keratins which are encapsulated with water in commercially obtainable pressure-tight measuring capsules. In the keratin/water system, a high water vapor pressure from which the HP-DSC analysis derives builds up in the encapsulated steel crucibles on heating to >100° C. The crucial difference between the HP-DSC thermograms of human hair fibers and normal DSC thermograms is that the endothermal peaks which reproduce the transition point and the transition enthalpy are shifted by ca. 90° C. to lower temperatures. This derives from the fact that, after diffusing into the hair fibers, the water reduces protein stability by weakening and splitting hydrogen bridge bonds and salt bonds so that the “gluing temperature” of the keratins is reduced. If only hydrogen bridges and salt bridges are dissolved by the supercontracting agent, such as water, the thermal effect is reversible (supercontraction). However, the process becomes irreversible when covalent bonds, such as disulfide bridges for example, are split. […]
(§2) Accordingly, both structural and chemical states and changes in fiber keratins and particularly in human hair fibers can be detected by dynamic differential scanning calorimetry (DSC). Under precisely defined test conditions, the processes detectable by calorimetry in human hair fibers can be recorded in the form of thermograms and used in regard to peak positions, structures and areas as an indicator for influencing order/disorder transitions through changes in inner and/or outer parameters produced, for example, by cosmetic treatment of the hair fibers. In other words, information on the strength of or damage to human hair fibers can be obtained from the endothermal peaks recorded in the thermogram of human hair fibers on the basis of peak position (transition point) and peak area (transition enthalpy). […]

[2] = system: Human hair (Alkinco 6634); assay: HP-DSC keratin melting point of permanent-waved hair after 1% aqueous active substance, Alkinco 6634; conditions: treated 10 mins. with 1% aqueous solution of active substance, rinsed, dried
Source text: as §1
(§3) Thermoanalytical investigations are particularly suitable for characterizing two-phase systems to which human hair fibers as fibrous keratins with their crystalline α-helix component and amorphous matrix component also belong. On the one hand, glass transitions and aging behavior of the amorphous matrix can be investigated, on the other hand the melting behavior of the crystalline helical phase provides important information. Thermoanalytical studies were described for the first time in 1899. The first differential thermoanalyses (DTA) of protein fibers were carried out towards the end of the fifties (F. Schwenker, J. H. Dusenbury, Text. Res. J. 1963, 30, pages 800 et seq; W. D. Felix, M. A. McDowall, H. Eyring, ibid. (1963), 33, pages 465 et seq). In the following years, various thermoanalytical measuring techniques, such as DTA, HP-DTA (high-pressure DTA) and DSC (differential scanning calorimetry) were applied to keratin fibers, for example to investigate the phenomenon of supercontraction, α-β-phase transitions of the helices or denaturing processes. Recently, the method of IIP-DSC was used to study keratin fibers, more particularly at the Deutsches Wollforschungsinstitut (German Wool Research Institute) in Aachen (F. J. Wortmann, H. Deutz, J. Appl. Polym. Sci. 1993, 48, pp. 137 et seq.). IIP-DSC rules out the problems associated with pyrolytic effects which occur in conventional DSC and the problems with data acquisition and interpretation by which DTA is attended. DSC measurements are carried out on keratins which are encapsulated with water in commercially obtainable pressure-tight measuring capsules. In the keratin/water system, a high water vapor pressure from which the HP-DSC analysis derives builds up in the encapsulated steel crucibles on heating to >100° C. […]
as §2

[3] = system: Human hair (Alkinco 6634); assay: HP-DSC keratin melting point after aftertreatment with conditioner (Application Example 3.1) containing pyridoxine in various concentrations
Source text: as §1, §3, §2

[4] = Fastness to washing of oxidation hair color, overall color difference DE* after 6 washes; set-up: species or system human; conditions: colored (Poly Diadem 718), 5 mins. rinse (Application Example 3.2) containing 2% active substance, washed 6x, smaller DE* = higher fastness
Procedure: Human hair fibers (Kerling Naturweiβ) were used. The hair fibers were intentionally damaged at their tips (2× blonding and 2× permanent waving) in order to simulate seriously damaged hair. […] After rinsing and drying, […] measurements (hair shafts and tips separated) were carried out and were repeated after 6 washes. […] The smaller DE* is, the smaller the loss of color by shampooing and the higher the fastness to washing.

Row | Compound | Keratin melting point for Alkinco 6633 [1] | Keratin melting point for Alkinco 6634 [2] [°C] | increase in melting point ([1]; Alkinco 6633, 1% in water, versus permanent-waved reference sample, not statistically highly significant) [°C] | Keratin melting point Alkinco 6634 ([3]; conditioner (Application Example 3.1) + 0.2% vitamin B6, 2 mins. aftertreatment of permanent-waved hair) [°C] | Keratin melting point Alkinco 6634 ([3]; conditioner (Application Example 3.1) + 0.5% vitamin B6, 2 mins. aftertreatment of permanent-waved hair) [°C] | Keratin melting point Alkinco 6634 ([3]; conditioner (Application Example 3.1) + 1.0% vitamin B6, 2 mins. aftertreatment of permanent-waved hair) [°C] | significance of (re)structuring effect by comparison with the reference sample ([3]; conditioner + 0.2% vitamin B6, Alkinco 6634) | DE* for normal weathered shafts [4] | DE* for seriously damaged tips ([4]; tips damaged 2x blonding and 2x permanent waving)
1 | Cc1ncc(COP(=O)(O)O)c(C=O)c1O [Pyridoxal-5-phosphate, pyridoxal-5′-phosphate] | 148.3 °C | 152.7 |  |  |  |  |  |  | 
2 | Cc1ncc(CO)c(CO)c1O [Pyridoxine, pyridoxine] | 144* ° C. | 152.1 | 0.5 | 146.2 | 146.5 | 147.4 | satistically significant | 1.8 | 5.8
3 | Cc1ncc(CO)c(CN)c1O [Pyridoxamine, pyridoxamine] | 147.9 °C | 152.2 |  |  |  |  |  |  | 
4 | Cc1ncc(CO)c(C=O)c1O [Pyridoxal, pyridoxal] | 147.7 °C | 152 |  |  |  |  |  |  | 

Reference: US6787128B2, “Structure-improving hair care agents” (Henkel Kommanditgesellschaft auf Aktien, priority 2000, dated 2004)
